Results from patent US8871753B2, “Macrocyclic compounds and their use as kinase inhibitors” (Incyte Corporation, priority 2008, dated 2014).
Where a name gives a salt, the structure may show the parent alone.

Assays:
Assay type in all cases: biochemical
[1] = target: T1, human JAK1 (a.a. 837-1142) (Homo sapiens, UniProt P23458); assay: In vitro JAK kinase assay (HTRF, phosphorylation of a biotinylated peptide), JAK1; conditions: Table B1; read-out: JAK1 IC50
T1 construct: human JAK1 (a.a. 837-1142); His tag (N); made in house; host or cells: insect cells (baculovirus)
Procedure, shortened: (§1)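 Kinase activity was measured as phosphorylation of a biotinylated peptide, with ATP at 90 μM for JAK1, 30 μM for JAK2 and 3 μM for JAK3. Reactions ran 1 hr at room temperature, were stopped with EDTA plus SA-APC and Eu-Py20, and were read by HTRF after 40 minutes of antibody binding.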

[2] = target: T2, human JAK2 (a.a. 828-1132) (Homo sapiens, UniProt O60674); assay: In vitro JAK kinase assay (HTRF, phosphorylation of a biotinylated peptide), JAK2; conditions: Table B1
T2 construct: JAK2 (a.a. 828-1132); His tag (N); made in house; host or cells: insect cells (baculovirus)
Procedure, shortened: as §1

[3] = target: T3, human JAK3 (a.a. 781-1124) (Homo sapiens, UniProt P52333); assay: In vitro JAK kinase assay (HTRF, phosphorylation of a biotinylated peptide), JAK3; conditions: Table B1
T3 construct: JAK3 (a.a. 781-1124); His tag (N); made in house; host or cells: insect cells (baculovirus)
Procedure, shortened: as §1

TYK2 = TYK2 (Homo sapiens, UniProt P29597); assay: TYK2 kinase inhibition (Table A1); conditions: Table B1
[4] = target: T4, Recombinant Human Anaplastic Lymphoma Kinase (Homo sapiens, UniProt Q9UM73); assay: ALK HTRF kinase assay; conditions: compound at a concentration of 500 nM or 1 mM (not specified); cells shown as percentage
T4 construct: purchased Invitrogen, Carlsbad, Calif
Procedure, shortened: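 Kinase activity of the recombinant human protein is measured on a biotinylated peptide, with a Eu-W1024 anti-phosphotyrosine antibody and streptavidin-allophycocyanin generating the homogeneous time-resolved fluorescence signal. Inhibition curves are fitted to yield IC50.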

T3 sequence (P52333 781-1124): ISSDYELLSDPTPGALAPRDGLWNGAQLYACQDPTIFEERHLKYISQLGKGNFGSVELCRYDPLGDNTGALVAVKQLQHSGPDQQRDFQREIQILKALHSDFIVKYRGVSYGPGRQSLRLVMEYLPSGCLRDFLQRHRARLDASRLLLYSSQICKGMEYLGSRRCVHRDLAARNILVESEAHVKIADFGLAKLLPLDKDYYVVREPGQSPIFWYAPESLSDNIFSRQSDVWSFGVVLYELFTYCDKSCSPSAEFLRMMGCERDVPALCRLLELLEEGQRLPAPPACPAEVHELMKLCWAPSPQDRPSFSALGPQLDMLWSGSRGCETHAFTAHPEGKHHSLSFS
T1 sequence (P23458 849-1154): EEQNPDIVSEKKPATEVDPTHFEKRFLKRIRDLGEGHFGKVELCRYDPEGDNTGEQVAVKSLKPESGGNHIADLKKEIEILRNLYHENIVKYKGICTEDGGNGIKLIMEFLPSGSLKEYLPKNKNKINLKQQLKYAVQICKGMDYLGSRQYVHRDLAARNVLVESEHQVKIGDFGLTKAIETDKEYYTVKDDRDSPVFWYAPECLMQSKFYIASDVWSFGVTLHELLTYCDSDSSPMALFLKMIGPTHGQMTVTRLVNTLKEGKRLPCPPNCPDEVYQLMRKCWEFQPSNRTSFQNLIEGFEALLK
T4 sequence (Q9UM73 19-1620): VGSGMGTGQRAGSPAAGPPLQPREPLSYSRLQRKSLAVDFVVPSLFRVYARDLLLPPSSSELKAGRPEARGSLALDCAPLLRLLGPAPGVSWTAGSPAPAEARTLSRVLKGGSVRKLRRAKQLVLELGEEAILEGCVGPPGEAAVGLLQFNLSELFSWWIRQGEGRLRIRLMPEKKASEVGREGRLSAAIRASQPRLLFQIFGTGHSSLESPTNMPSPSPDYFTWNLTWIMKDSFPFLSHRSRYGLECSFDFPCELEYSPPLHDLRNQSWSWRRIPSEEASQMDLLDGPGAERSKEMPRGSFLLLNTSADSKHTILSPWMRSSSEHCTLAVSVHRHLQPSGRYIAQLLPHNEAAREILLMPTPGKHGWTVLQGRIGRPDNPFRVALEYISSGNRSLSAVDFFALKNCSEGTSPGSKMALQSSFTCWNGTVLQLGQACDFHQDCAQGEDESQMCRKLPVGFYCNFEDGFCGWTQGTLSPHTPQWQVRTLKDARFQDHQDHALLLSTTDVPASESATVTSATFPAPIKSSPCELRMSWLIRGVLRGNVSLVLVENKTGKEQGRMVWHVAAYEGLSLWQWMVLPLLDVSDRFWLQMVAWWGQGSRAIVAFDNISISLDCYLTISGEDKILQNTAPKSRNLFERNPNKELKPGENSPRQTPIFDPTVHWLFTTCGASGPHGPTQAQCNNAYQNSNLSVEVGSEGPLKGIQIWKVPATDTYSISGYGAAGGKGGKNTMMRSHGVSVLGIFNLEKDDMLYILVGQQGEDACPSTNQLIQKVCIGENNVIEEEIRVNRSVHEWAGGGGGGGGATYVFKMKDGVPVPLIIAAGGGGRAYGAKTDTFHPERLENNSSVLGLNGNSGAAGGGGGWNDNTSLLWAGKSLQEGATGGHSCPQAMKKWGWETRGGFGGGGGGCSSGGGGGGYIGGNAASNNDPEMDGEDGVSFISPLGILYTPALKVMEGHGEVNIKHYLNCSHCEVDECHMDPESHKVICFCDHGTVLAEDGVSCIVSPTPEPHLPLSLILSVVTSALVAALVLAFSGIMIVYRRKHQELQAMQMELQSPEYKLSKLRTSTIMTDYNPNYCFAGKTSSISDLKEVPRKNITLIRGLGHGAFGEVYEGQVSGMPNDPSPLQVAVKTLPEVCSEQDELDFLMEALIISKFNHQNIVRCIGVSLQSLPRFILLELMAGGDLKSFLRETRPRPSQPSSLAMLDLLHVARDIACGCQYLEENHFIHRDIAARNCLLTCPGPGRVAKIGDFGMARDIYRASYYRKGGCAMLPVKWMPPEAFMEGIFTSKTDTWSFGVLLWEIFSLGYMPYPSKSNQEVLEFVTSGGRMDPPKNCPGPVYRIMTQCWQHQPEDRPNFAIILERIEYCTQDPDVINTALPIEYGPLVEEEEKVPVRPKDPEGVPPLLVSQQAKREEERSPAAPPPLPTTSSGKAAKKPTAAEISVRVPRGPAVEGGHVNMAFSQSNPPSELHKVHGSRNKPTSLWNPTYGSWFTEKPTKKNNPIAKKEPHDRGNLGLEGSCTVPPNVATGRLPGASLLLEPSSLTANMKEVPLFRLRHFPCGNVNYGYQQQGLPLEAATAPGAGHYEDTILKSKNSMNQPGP
T2 sequence (O60674 828-1132): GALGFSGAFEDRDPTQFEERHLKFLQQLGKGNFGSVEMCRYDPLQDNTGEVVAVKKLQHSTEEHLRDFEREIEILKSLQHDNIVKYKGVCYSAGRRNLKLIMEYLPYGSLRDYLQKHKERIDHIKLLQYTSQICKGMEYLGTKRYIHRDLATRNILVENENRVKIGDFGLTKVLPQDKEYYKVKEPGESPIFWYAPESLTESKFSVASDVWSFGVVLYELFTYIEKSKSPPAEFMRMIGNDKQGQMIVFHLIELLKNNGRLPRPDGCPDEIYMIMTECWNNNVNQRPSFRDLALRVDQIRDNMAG
Sequence of TYK2 (P29597 whole entry): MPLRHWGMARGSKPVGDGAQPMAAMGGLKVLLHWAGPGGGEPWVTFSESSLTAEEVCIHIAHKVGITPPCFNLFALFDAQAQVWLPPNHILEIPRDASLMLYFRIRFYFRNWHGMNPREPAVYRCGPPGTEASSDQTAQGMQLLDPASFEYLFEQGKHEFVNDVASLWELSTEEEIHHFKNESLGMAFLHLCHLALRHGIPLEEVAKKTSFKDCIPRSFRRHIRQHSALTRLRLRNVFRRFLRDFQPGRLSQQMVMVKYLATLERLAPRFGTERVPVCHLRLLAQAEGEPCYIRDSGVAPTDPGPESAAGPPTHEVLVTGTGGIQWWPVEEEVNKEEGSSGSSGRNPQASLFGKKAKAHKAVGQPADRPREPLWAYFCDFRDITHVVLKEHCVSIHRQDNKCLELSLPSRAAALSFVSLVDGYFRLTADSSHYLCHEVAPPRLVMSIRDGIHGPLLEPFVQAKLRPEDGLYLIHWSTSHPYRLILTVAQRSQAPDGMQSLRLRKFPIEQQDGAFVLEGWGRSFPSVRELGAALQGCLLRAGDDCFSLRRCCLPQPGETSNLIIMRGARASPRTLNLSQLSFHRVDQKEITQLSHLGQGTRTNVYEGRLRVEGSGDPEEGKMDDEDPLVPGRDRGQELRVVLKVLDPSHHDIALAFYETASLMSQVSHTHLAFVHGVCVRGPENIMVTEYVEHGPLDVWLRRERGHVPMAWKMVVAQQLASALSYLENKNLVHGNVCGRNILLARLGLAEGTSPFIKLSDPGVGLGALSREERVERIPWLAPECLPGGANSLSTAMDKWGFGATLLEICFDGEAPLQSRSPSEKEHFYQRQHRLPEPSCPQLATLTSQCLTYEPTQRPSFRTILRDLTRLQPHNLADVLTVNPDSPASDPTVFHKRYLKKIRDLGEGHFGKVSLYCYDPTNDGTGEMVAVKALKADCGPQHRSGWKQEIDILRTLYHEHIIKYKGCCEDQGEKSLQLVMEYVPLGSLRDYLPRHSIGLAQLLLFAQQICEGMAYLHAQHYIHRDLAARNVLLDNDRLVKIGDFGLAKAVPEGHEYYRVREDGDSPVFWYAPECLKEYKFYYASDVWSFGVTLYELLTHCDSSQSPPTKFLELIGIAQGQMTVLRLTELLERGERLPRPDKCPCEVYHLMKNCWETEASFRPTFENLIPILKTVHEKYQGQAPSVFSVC

| SMILES | IC50 [1] | IC50 [2] | IC50 [3] | IC50 (TYK2) | ALK % of inhibition at a concentration of 500 nM or 1 mM [4] |
| --- | --- | --- | --- | --- | --- |
| CC(C)NC(=O)Nc1ccc2cc1CCc1cccc(c1)Nc1ncc(Cl)c(n1)N2 [Example B116, N-[6-Chloro-2,4,8,22-tetraazatetracyclo[14.3.1.1(3,7).1(9,13)]docosa-1(20), 3(22),4,6,9(21),10,12,16,18-nonaen-12-yl]-N′-isopropylurea trifluoroacetate] | 3.1 nM | 3.5 nM | 26 nM | 10 nM | 20% |
| O=C(NCc1ccco1)Nc1ccc2cc1CCc1cccc(c1)Nc1ncc(Cl)c(n1)N2 [Example B117, N-[6-Chloro-2,4,8,22-tetraazatetracyclo[14.3.1.1(3,7).1(9,13)]docosa-1(20), 3(22),4,6,9(21),10,12,16,18-nonaen-12-yl]-N′-(2-furylmethyl)urea trifluoroacetate] | 1.1 nM | 2.8 nM | 17 nM | 4.5 nM | 21% |
| Cc1occc1NC(=O)Nc1ccc2cc1CCc1cccc(c1)Nc1ncc(Cl)c(n1)N2 [Example B118, N-[6-Chloro-2,4,8,22-tetraazatetracyclo[14.3.1.1(3,7).1(9,13)]docosa-1(20), 3(22),4,6,9(21),10,12,16,18-nonaen-12-yl]-N′-(2-methyl-3-furyl)urea trifluoroacetate] | 1.3 nM | 2.1 nM | 20 nM | 7.7 nM | 22% |
| O=C(Nc1ccc2cc1CCc1cccc(c1)Nc1ncc(Cl)c(n1)N2)NC1CCCCC1 [Example B119, N-[6-Chloro-2,4,8,22-tetraazatetracyclo[14.3.1.1(3,7).1(9,13)]docosa-1(20), 3(22),4,6,9(21),10,12,16,18-nonaen-12-yl]-N′-cyclohexylurea trifluoroacetate] | 2.9 nM | 3.3 nM | 48 nM | 9.8 nM | 19% |
| O=C(Nc1ccc(Cl)nc1)Nc1ccc2cc1CCc1cccc(c1)Nc1ncc(Cl)c(n1)N2 [Example B121, N-(6-Chloropyridin-3-yl)-N′-[6-chloro-2,4,8,22-tetraazatetracyclo[14.3.1.1(3,7).1(9,13)]docosa-1(20),3(22),4,6,9(21),10,12,16,18-nonaen-12-yl]urea bis(trifluoroacetate)] | 2.2 nM | 7.9 nM | 50 nM | 19 nM | 39% |
| Cc1cccc(Cl)c1NC(=O)Nc1ccc2cc1CCc1cccc(c1)Nc1ncc(Cl)c(n1)N2 [Example B122, N-(2-Chloro-6-methylphenyl)-N′-[6-chloro-2,4,8,22-tetraazatetracyclo[14.3.1.1(3,7).1(9,13)]docosa-1(20),3(22),4,6,9(21),10,12,16,18-nonaen-12-yl]urea trifluoroacetate] | 5.6 nM | 6.7 nM | 30 nM | 24 nM | 13% |
| Cc1ccc(Cl)cc1NC(=O)Nc1ccc2cc1CCc1cccc(c1)Nc1ncc(Cl)c(n1)N2 [Example B123, N-(5-Chloro-2-methylphenyl)-N′-[6-chloro-2,4,8,22-tetraazatetracyclo[14.3.1.1(3,7).1(9,13)]docosa-1(20),3(22),4,6,9(21),10,12,16,18-nonaen-12-yl]urea trifluoroacetate] | 7.9 nM | 15 nM | 110 nM | 32 nM | 16% |
| O=C(Nc1ccc2cc1CCc1cccc(c1)Nc1ncc(Cl)c(n1)N2)Nc1cccc2ccccc12 [Example B124, N-[6-Chloro-2,4,8,22-tetraazatetracyclo[14.3.1.1(3,7).1(9,13)]docosa-1(20),3(22),4,6,9(21),10,12,16,18-nonaen-12-yl]-N′-1-naphthylurea trifluoroacetate] | 3.9 nM | 4.6 nM | 33 nM | 13 nM | 17% |

Results, then the compound that gave them:

| IC50 [1] | IC50 [2] | IC50 [3] | IC50 (TYK2) | ALK % of inhibition at a concentration of 500 nM or 1 mM [4] | SMILES |
| --- | --- | --- | --- | --- | --- |
| 3.7 nM | 6 nM | 21 nM | 5 nM | 14% | O=C(Nc1ccc2cc1CCc1cccc(c1)Nc1ncc(Cl)c(n1)N2)Nc1ccccc1C(F)(F)F [Example B111, N-[6-Chloro-2,4,8,22-tetraazatetracyclo[14.3.1.1(3,7).1(9,13)]docosa-1(20), 3(22),4,6,9(21),10,12,16,18-nonaen-12-yl]-N′-[2-(trifluoromethyl)phenyl]urea trifluoroacetate] |
| 11 nM | 34 nM | 165 nM | 33 nM | 3.3% | O=C(Nc1cccc(C(F)(F)F)c1)Nc1ccc2cc1CCc1cccc(c1)Nc1ncc(Cl)c(n1)N2 [Example B112, N-[6-Chloro-2,4,8,22-tetraazatetracyclo[14.3.1.1(3,7).1(9,13)]docosa-1(20), 3(22),4,6,9(21),10,12,16,18-nonaen-12-yl]-N′-[3-(trifluoromethyl)phenyl]urea trifluoroacetate] |
| 4.7 nM | 7.4 nM | 48 nM | 17 nM | 9.5% | O=C(Nc1ccc2cc1CCc1cccc(c1)Nc1ncc(Cl)c(n1)N2)Nc1c(Cl)cccc1Cl [Example B113, N-[6-Chloro-2,4,8,22-tetraazatetracyclo[14.3.1.1(3,7).1(9,13)]docosa-1(20), 3(22),4,6,9(21),10,12,16,18-nonaen-12-yl]-N′-(2,6-dichlorophenyl)urea trifluoroacetate] |
| 0.81 nM | 2.9 nM | 13 nM | 5.4 nM | 24% | CNC(=O)Nc1ccc2cc1CCc1cccc(c1)Nc1ncc(Cl)c(n1)N2 [Example B114, N-[6-Chloro-2,4,8,22-tetraazatetracyclo[14.3.1.1(3,7).1(9,13)]docosa-1(20), 3(22),4,6,9(21),10,12,16,18-nonaen-12-yl]-N′-methylurea trifluoroacetate] |
| 1.4 nM | 5.2 nM | 29 nM | 8.8 nM | 23% | CCNC(=O)Nc1ccc2cc1CCc1cccc(c1)Nc1ncc(Cl)c(n1)N2 [Example B115, N-[6-Chloro-2,4,8,22-tetraazatetracyclo[14.3.1.1(3,7).1(9,13)]docosa-1(20), 3(22),4,6,9(21),10,12,16,18-nonaen-12-yl]-N′-ethylurea trifluoroacetate] |
| 6.7 nM | 7.9 nM | 68 nM | 25 nM | 16% | Cc1csc(NC(=O)Nc2ccc3cc2CCc2cccc(c2)Nc2ncc(Cl)c(n2)N3)c1 [Example B120, N-[6-Chloro-2,4,8,22-tetraazatetracyclo[14.3.1.1(3,7).1(9,13)]docosa-1(20), 3(22),4,6,9(21),10,12,16,18-nonaen-12-yl]-N′-(4-methyl-2-thienyl)urea trifluoroacetate] |
| 2.8 nM | 10 nM | 76 nM | 30 nM | 34% | Cn1ccc2c(NC(=O)Nc3ccc4cc3CCc3cccc(c3)Nc3ncc(Cl)c(n3)N4)cccc21 [Example B125, N-[6-Chloro-2,4,8,22-tetraazatetracyclo[14.3.1.1(3,7).1(9,13)]docosa-1(20), 3(22),4,6,9(21),10,12,16,18-nonaen-12-yl]-N′-(1-methyl-1H-indol-4-yl)urea trifluoroacetate] |
| 8.9 nM | 20 nM | 164 nM | 52 nM | 6.1% | CCC(C)c1ccccc1NC(=O)Nc1ccc2cc1CCc1cccc(c1)Nc1ncc(Cl)c(n1)N2 (stereo not drawn) [Example B126, N-(2-sec-Butylphenyl)-N′-[6-chloro-2,4,8,22-tetraazatetracyclo[14.3.1.1(3,7).1(9,13)]docosa-1(20),3(22),4,6,9(21),10,12,16,18-nonaen-12-yl]urea trifluoroacetate] |
| 25 nM | 27 nM | 182 nM | 89 nM | 6.1% | O=C(Nc1ccc2cc1CCc1cccc(c1)Nc1ncc(Cl)c(n1)N2)NC12CC3CC(CC(C3)C1)C2 [Example B127, N-1-Adamantyl-N′-[6-chloro-2,4,8,22-tetraazatetracyclo[14.3.1.1(3,7).1(9,13)]docosa-1(20),3(22),4,6,9(21),10,12,16,18-nonaen-12-yl]urea trifluoroacetate] |
| 0.69 nM | 1.8 nM | 13 nM | 9.2 nM | 32% | O=C(Nc1ccc2cc1CCc1cccc(c1)Nc1ncc(Cl)c(n1)N2)Nc1ccccc1OC(F)F [Example B128, N-[6-Chloro-2,4,8,22-tetraazatetracyclo[14.3.1.1(3,7).1(9,13)]docosa-1(20), 3(22),4,6,9(21),10,12,16,18-nonaen-12-yl]-N′-[2-(difluoromethoxy)phenyl]urea trifluoroacetate] |
